Test results taken from EPA's ToxValDB 9.5 (doi:10.2903/j.efsa.2008.168r).

Key:
Aphidius rhopalosiphi = assay: LR50; higher = less toxic; conditions: not reported; mortality
Coturnix japonica = conditions: acute, oral, mortality
Oncorhynchus mykiss = conditions: acute; duration: 96 hours; mortality
Anatidae = conditions: oral, mortality
Mus musculus = conditions: chronic; duration: 2 years; body weight
Apis mellifera = conditions: acute; duration: 48 hours; oral; unspecified; mortality
Pimephales promelas = conditions: chronic/long-term; duration: 32 days
Bibionidae = conditions: chronic/long-term; duration: 26 days
Folsomia candida = conditions: chronic/long-term
Oryctolagus sp. = conditions: reproduction developmental; body weight
Canidae = conditions: chronic; duration: 1 years; oral; Dog Other; body weight
Daphnia magna = conditions: chronic/long-term; duration: 21 days; reproduction

How did the LR50 (Aphidius rhopalosiphi) turn out when Nc1nc(N)nc(NC2CC2)n1 [Cyromazine] was run?
Its LR50 is no less than 891 g/ha.

And the LC50 (Coturnix japonica; diet)?
Its LC50 is greater than 683 mg/kg-day.

And the LD50 (Coturnix japonica)?
Its LD50 is 2340 mg/kg.

And the LC50 (Oncorhynchus mykiss)?
The LC50 was greater than 100 µg/mL.

What about the LD50 (Anatidae; acute, unspecified) of the same compound?
The LD50 was greater than 1000 mg/kg.

And the LC50 (Anatidae; short-term, feed)?
The LC50 was greater than 1120 mg/kg-day.

And the LD50 (Rattus norvegicus; acute, mortality)?
The LD50 was 3390 mg/kg.

What about the NOAEL (Rattus norvegicus; reproduction developmental, reproduction) of the same compound?
The NOAEL was 30 mg/kg-day.

What about the NOAEL (Mus musculus) of the same compound?
Its NOAEL is 6.5 mg/kg-day.

What about the LD50 (Apis mellifera) of the same compound?
Its LD50 is 186 µg/piece.

And the NOEC (Pimephales promelas)?
The NOEC was 14 mg/L.

What about the NOEC (Bibionidae) of the same compound?
Its NOEC is 0.025 mg/L.

And the NOEC (Folsomia candida)?
Its NOEC is 9.6 mg/kg.

What about the LC50 (Colinus virginianus; acute, oral, diet, mortality) of the same compound?
Its LC50 is greater than 1370 mg/kg-day.

And the LD50 (Colinus virginianus; acute, oral, mortality)?
The LD50 was 1780 mg/kg.

And the NOEL (Colinus virginianus; reproduction developmental)?
The NOEL was 110 mg/kg-day.

What about the NOAEL (Oryctolagus sp.) of the same compound?
The NOAEL was 10 mg/kg-day.

And the NOAEL (Canidae)?
The NOAEL was 5.74 mg/kg-day.

What about the LD50 (Anas platyrhynchos; acute, oral, unspecified, mortality) of the same compound?
The LD50 was greater than 2510 mg/kg.

And the NOEL (Anas platyrhynchos; reproductive)?
The NOEL was 38.3 mg/kg-day.

What about the LC50 (Anas platyrhynchos; short-term, oral, feed, mortality) of the same compound?
The LC50 was greater than 526 mg/kg-day.

What about the NOEC (Daphnia magna) of the same compound?
Its NOEC is 0.31 mg/L.

What about the LC50 (Tagia sp.; acute, duration: 14 days, mortality) of the same compound?
The LC50 was greater than 1000 mg/kg.

And the NOEC (Tagia sp.; chronic/long-term, duration: 56 days, reproduction)?
Its NOEC is 333 mg/kg.
